In publication PMC10114720:

Legend:
[1] = PDMS sheets cleaned by Soxhlet with ethyl acetate; batch shaking method with a mixture of all chemicals at several PDMS-mass to water-volume ratios and spiked levels; vials shaken on an orbital shaker at room temperature in the dark, sampled at two equilibration times; PDMS extracts and water quantified by LC-HRMS (Orbitrap); D from the slope of C_PDMS on C_w or their ratio; value is the mean over that pH's experiments (individual experiments in the SI's concentrations table), sd is the table's stdev; details: PDMS (polydimethylsiloxane silicone sheet), phosphate buffer at three target pH values (the paper's methods)
[2] = neutral chemical: log K is the mean of log D over all measurements at the three pH values (D shown independent of pH, paired t-test); sd is the table's stddev. PDMS sheets cleaned by Soxhlet with ethyl acetate; batch shaking method with a mixture of all chemicals at several PDMS-mass to water-volume ratios and spiked levels; vials shaken on an orbital shaker at room temperature in the dark, sampled at two equilibration times; PDMS extracts and water quantified by LC-HRMS (Orbitrap); D from the slope of C_PDMS on C_w or their ratio; details: PDMS (polydimethylsiloxane silicone sheet); phosphate buffer at three target pH values (the paper's methods)
[3] = monoprotic acid or base: log K of the neutral species extrapolated from the linear regression of D on the neutral fraction (from pKa and pH; the paper's eq. for monoprotic IOCs), the slope giving K of the neutral species; replicates column holds the table's 95% confidence limits. PDMS sheets cleaned by Soxhlet with ethyl acetate; batch shaking method with a mixture of all chemicals at several PDMS-mass to water-volume ratios and spiked levels; vials shaken on an orbital shaker at room temperature in the dark, sampled at two equilibration times; PDMS extracts and water quantified by LC-HRMS (Orbitrap); D from the slope of C_PDMS on C_w or their ratio; details: PDMS (polydimethylsiloxane silicone sheet); phosphate buffer at three target pH values (the paper's methods)

| Structure (SMILES) | log D PDMS/w (apparent distribution ratio at the stated pH) ([1]; pH 3) | log D PDMS/w (apparent distribution ratio at the stated pH) ([1]; pH 7.4) | log D PDMS/w (apparent distribution ratio at the stated pH) ([1]; pH 11.5) | log K PDMS/w (neutral species) [2] | log K PDMS/w (neutral species) [3] |
| --- | --- | --- | --- | --- | --- |
| CCC(C(N)=O)(C(N)=O)c1ccccc1 | -0.586 log units; D and K as the pape | -0.585 log units; D and K as the pape | -0.5033 log units; D and K as the pape | -0.5565 log units; D and K as the pape | – |
| CC(C)(C#N)c1cc(Cn2cncn2)cc(C(C)(C)C#N)c1 | 2.047 log units; D and K as the pape | 1.994 log units; D and K as the pape | 2.025 log units; D and K as the pape | 2.022 log units; D and K as the pape | – |
| CCCCCCCCn1sccc1=O | 3.047 log units; D and K as the pape | 2.926 log units; D and K as the pape | 2.893 log units; D and K as the pape | 2.956 log units; D and K as the pape | – |
| CCCCCCCCCCCC(=O)N(CCO)CCO | 2.742 log units; D and K as the pape | 2.767 log units; D and K as the pape | 2.749 log units; D and K as the pape | 2.753 log units; D and K as the pape | – |
| O=C1CC2(CCCCC2)CN1 | 1.311 log units; D and K as the pape | 1.249 log units; D and K as the pape | 1.271 log units; D and K as the pape | 1.277 log units; D and K as the pape | – |
| Cc1cccc(C)c1N(Cn1cccn1)C(=O)CS(C)=O (stereo not drawn) | 0.5745 log units; D and K as the pape | 0.5892 log units; D and K as the pape | 0.6192 log units; D and K as the pape | 0.5949 log units; D and K as the pape | – |
| CCNc1nc(N)nc(Cl)n1 | 0.21 log units; D and K as the pape | 0.2883 log units; D and K as the pape | 0.09 log units; D and K as the pape | 0.1961 log units; D and K as the pape | – |
| CCOC(=O)c1ccc(N)cc1 | 0.4988 log units; D and K as the pape | 0.4322 log units; D and K as the pape | 0.4489 log units; D and K as the pape | – | 0.5546 log units; D and K as the pape |
| NC(=O)/N=C1\SCCN1Cc1ccc(Cl)nc1 | 0.2411 log units; D and K as the pape | 0.3692 log units; D and K as the pape | 0.4142 log units; D and K as the pape | – | 0.4822 log units; D and K as the pape |
| CSc1nc(NC2CC2)nc(NC(C)(C)C)n1 | 2.006 log units; D and K as the pape | 2.689 log units; D and K as the pape | 2.624 log units; D and K as the pape | – | 2.78 log units; D and K as the pape |
| CCN(CC)c1ccc2c(C)cc(=O)oc2c1 | 2.535 log units; D and K as the pape | 2.797 log units; D and K as the pape | 2.809 log units; D and K as the pape | – | 2.913 log units; D and K as the pape |
| c1ccc2c(c1)[nH]c1cnccc12 | 1.471 log units; D and K as the pape | 2.208 log units; D and K as the pape | 2.227 log units; D and K as the pape | – | 2.353 log units; D and K as the pape |
| CCC1(c2ccccc2)C(=O)NCNC1=O | 1.032 log units; D and K as the pape | – | – | – | 1.057 log units; D and K as the pape |
| Cc1ccc2[nH]nnc2c1 | 0.336 log units; D and K as the pape | 0.308 log units; D and K as the pape | -0.64 log units; D and K as the pape | – | 0.3619 log units; D and K as the pape |
| CC(C)(Oc1ccc(CCNC(=O)c2ccc(Cl)cc2)cc1)C(=O)O | 1.054 log units; D and K as the pape | -0.64 log units; D and K as the pape | – | – | 1.311 log units; D and K as the pape |
| CCNS(=O)(=O)c1ccccc1C | 0.51 log units; D and K as the pape | 0.4188 log units; D and K as the pape | 0.4886 log units; D and K as the pape | – | 0.5936 log units; D and K as the pape |
| CC(C)(C)c1ccc(S(N)(=O)=O)cc1 | 1.11 log units; D and K as the pape | 1.067 log units; D and K as the pape | 1.073 log units; D and K as the pape | – | 1.285 log units; D and K as the pape |
| c1ccc2sc(N3CCOCC3)nc2c1 | 1.704 log units; D and K as the pape | 1.897 log units; D and K as the pape | 1.881 log units; D and K as the pape | – | 2.029 log units; D and K as the pape |
| CCNc1ccc2c(C)cc(=O)oc2c1 | 1.914 log units; D and K as the pape | 1.863 log units; D and K as the pape | 1.825 log units; D and K as the pape | – | 2.015 log units; D and K as the pape |
| NC(=O)N1c2ccccc2C(O)C(O)c2ccccc21 (stereo not drawn) | -0.08 log units; D and K as the pape | -0.44 log units; D and K as the pape | -0.57 log units; D and K as the pape | – | 0.07041 log units; D and K as the pape |
| c1ccc2[nH]c(-c3cscn3)nc2c1 | 0.5417 log units; D and K as the pape | 1.69 log units; D and K as the pape | 1.693 log units; D and K as the pape | – | 1.855 log units; D and K as the pape |
| Clc1ccc(COC(Cn2ccnc2)c2ccc(Cl)cc2Cl)c(Cl)c1 (stereo not drawn) | 2.616 log units; D and K as the pape | 4.581 log units; D and K as the pape | 4.53 log units; D and K as the pape | – | 4.599 log units; D and K as the pape |
| c1ccc2c(c1)[nH]c1ccncc12 | -0.445 log units; D and K as the pape | 2.315 log units; D and K as the pape | 2.443 log units; D and K as the pape | – | 2.458 log units; D and K as the pape |
| O=c1c2ccccc2[nH]c2ccccc12 | 1.351 log units; D and K as the pape | 1.251 log units; D and K as the pape | 1.334 log units; D and K as the pape | – | 1.406 log units; D and K as the pape |
| Cc1cc(=O)oc2cc(N)ccc12 | 0.7917 log units; D and K as the pape | 0.8008 log units; D and K as the pape | 0.8475 log units; D and K as the pape | – | 0.9136 log units; D and K as the pape |
| Cc1nccn1CC1CCc2c(c3ccccc3n2C)C1=O (stereo not drawn) | -0.92 log units; D and K as the pape | 1.409 log units; D and K as the pape | 2.124 log units; D and K as the pape | – | 2.203 log units; D and K as the pape |
| Clc1ccccc1C(c1ccccc1)(c1ccccc1)n1ccnc1 | 2.324 log units; D and K as the pape | 4.388 log units; D and K as the pape | 4.335 log units; D and K as the pape | – | 4.471 log units; D and K as the pape |
